Assays:
Type in all cases: in vivo
Scirpus juncoides [1] = assay: Test Example 1: herbicidal activity, application before weed generation in submerged conditions (symbol B)
How it was run: (§1)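 In a flooded pot test with alluvial soil, the emulsion-formulated compound was diluted with water to a predetermined amount and applied to the floodwater immediately on the sowing day. Pots were held in a greenhouse at 25–30 °C for 3 weeks before each weed was rated.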

Alopecurus myosuroides = assay: Test Example 5: herbicidal effect by foliage application, plastic box (symbol J); conditions: 3 weeks after application
How it was run: (§2)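 Greenhouse foliar test: seedlings at 14 days, grown 25° C. to 30° C. in sterilized diluvial soil; compound applied as an aqueous dilution of an emulsion; response read 3 weeks after spraying.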

Amaranthus retroflexus [2] = assay: Test Example 5: herbicidal effect by foliage application, plastic box (symbol N); conditions: 3 weeks after application
How it was run: as §2

[3] = system: Echinochloa crus-galli var. crus-galli; assay: Test Example 5: herbicidal effect by foliage application, plastic box (symbol H); conditions: 3 weeks after application
How it was run: as §2

[4] = system: Echinochloa oryzacola Vasing.; assay: Test Example 1: herbicidal activity, application before weed generation in submerged conditions (symbol A)
How it was run: as §1

Amaranthus retroflexus [5] = assay: Test Example 4: herbicidal effect by soil treatment (symbol N)
How it was run: (§3)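 Seeds were sown in sterilized diluvial soil, covered with about 1.5 cm of soil, and the soil surface was sprayed with a water-diluted emulsion of the compound at a predetermined rate. Plants grew in a greenhouse at 25° C. to 30° C.; effects were scored visually 3 weeks after application.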

wheat = assay: Test Example 4: effect on crop by soil treatment (symbol e)
How it was run: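 Diluvial soil (sterilized) in boxes; seeds placed spot-wise alongside weed species; ~1.5 cm covering soil. Greenhouse, 25–30° C.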

Scirpus juncoides [6] = assay: Test Example 2: herbicidal activity, application during weed generation in submerged conditions (symbol B); conditions: Table 23, grade 0-5 by criteria of Test Example 1
How it was run: (§4)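 Weeds emerging under flooded conditions were treated with compound formulated as an emulsion and diluted with water to the intended herbicide amount, poured onto the surface of 4 cm standing water. Seeds had been co-sown in alluvial soil; plants grew at 25° C. to 30° C. and were assessed after 3 weeks.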

Setaria viridis = assay: Test Example 4: herbicidal effect by soil treatment (symbol G)
How it was run: as §3

Cyperus difformis = assay: Test Example 3: herbicidal effect by foliage application, Wagner pot (symbol E)
How it was run: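 Alluvial soil was flooded to a depth of 0.1–0.5 cm, seeded with the weeds and rice, and kept in a greenhouse at 25–30 °C. After 14 days of growth, the foliage received a small-sprayer application of emulsion diluted to the intended rate; injury was rated at 3 weeks.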

[7] = system: Echinochloa oryzacola Vasing.; assay: Test Example 2: herbicidal activity, application during weed generation in submerged conditions (symbol A); conditions: Table 23, grade 0-5 by criteria of Test Example 1
How it was run: as §4

transplanted rice plant = assay: Test Example 1: effect on crop, application before weed generation in submerged conditions (symbol a)
How it was run: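 Rice at 2.5 leaf stage transplanted into submerged soil (4 cm depth) sown with three weed species; herbicide applied before weed emergence.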

Apera spica-venti = assay: Test Example 4: herbicidal effect by soil treatment (symbol L)
How it was run: as §3

[8] = application herbicide amount 192 g/ha
[9] = application herbicide amount 320 g/ha

SMILES | Herbicidal effect grade, B: Scirpus juncoides (Scirpus juncoides [1]; [9]) | J: Alopecurus myosuroides, herbicidal effect (criteria 0-5) (Alopecurus myosuroides; 320 g/ha) | N: Amaranthus retroflexus, herbicidal effect (criteria 0-5) (Amaranthus retroflexus [2]; 320 g/ha) | H: Echinochloa crus-galli var. crus-galli, herbicidal effect (criteria 0-5) ([3]; 320 g/ha) | Herbicidal effect grade, A: Echinochloa oryzacola Vasing. [4, 9] | N: Amaranthus retroflexus, herbicidal effect grade (Amaranthus retroflexus [5]; 320 g/ha) | e: wheat, effect grade on crop (wheat; 320 g/ha) | Herbicidal effect grade, B: Scirpus juncoides (Scirpus juncoides [6]; [9]) | G: Setaria viridis, herbicidal effect grade (Setaria viridis; 320 g/ha) | herbicidal effect on E, grade 0-5 (Cyperus difformis; [9]) | Herbicidal effect grade, A: Echinochloa oryzacola Vasing. [7, 9] | Effect grade on crop, a: transplanted rice plant (transplanted rice plant; [9]) | L: Apera spica-venti, herbicidal effect grade (Apera spica-venti; 320 g/ha) | further results
CON=C(C)CC1CC(OC(=O)C2CCCO2)=C(c2c(C)cc(C)cc2C)C1=O (stereo not drawn) [1-076] |  |  |  |  |  |  |  |  |  |  |  |  |  | Herbicidal effect grade, B: Scirpus juncoides (Scirpus juncoides [1]; [8]): 4 (Herbicidal ratio of 70% or higher and lower than 90%); J: Alopecurus myosuroides, herbicidal effect (criteria 0-5) (Alopecurus myosuroides; 192 g/ha): 5 (Herbicidal ratio of 90% or more (almost completely withered)); N: Amaranthus retroflexus, herbicidal effect (criteria 0-5) (Amaranthus retroflexus [2]; 192 g/ha): 0 (Herbicidal ratio of 5% or lower (almost no effect)); H: Echinochloa crus-galli var. crus-galli, herbicidal effect (criteria 0-5) ([3]; 192 g/ha): 5 (Herbicidal ratio of 90% or more (almost completely withered)); Herbicidal effect grade, A: Echinochloa oryzacola Vasing. [4, 8]: 4 (Herbicidal ratio of 70% or higher and lower than 90%); N: Amaranthus retroflexus, herbicidal effect grade (Amaranthus retroflexus [5]; 192 g/ha): 4 (Herbicidal ratio of 70% or higher and lower than 90%); e: wheat, effect grade on crop (wheat; 192 g/ha): 4 (Herbicidal ratio of 70% or higher and lower than 90%); Herbicidal effect grade, B: Scirpus juncoides (Scirpus juncoides [6]; [8]): 4 (Herbicidal ratio of 70% or higher and lower than 90%); G: Setaria viridis, herbicidal effect grade (Setaria viridis; 192 g/ha): 5 (Herbicidal ratio of 90% or more (almost completely withered)); herbicidal effect on E, grade 0-5 (Cyperus difformis; [8]): 5 (Herbicidal ratio of 90% or more (almost completely withered)); Herbicidal effect grade, A: Echinochloa oryzacola Vasing. [7, 8]: 5 (Herbicidal ratio of 90% or more (almost completely withered)); Effect grade on crop, a: transplanted rice plant (transplanted rice plant; [8]): 5 (Herbicidal ratio of 90% or more (almost completely withered)); L: Apera spica-venti, herbicidal effect grade (Apera spica-venti; 192 g/ha): 5 (Herbicidal ratio of 90% or more (almost completely withered))
CON=C(C)CC1CC(OC(=O)C#C[Si](C)(C)C)=C(c2c(C)cc(C)cc2C)C1=O (stereo not drawn) [1-096] | 5 (Herbicidal ratio of 90% or more (almost completely withered)) | 5 (Herbicidal ratio of 90% or more (almost completely withered)) | 2 (Herbicidal ratio of 20% or higher and lower than 40%) | 5 (Herbicidal ratio of 90% or more (almost completely withered)) | 5 (Herbicidal ratio of 90% or more (almost completely withered)) | 4 (Herbicidal ratio of 70% or higher and lower than 90%) | 3 (Herbicidal ratio of 40% or higher and lower than 70%) | 5 (Herbicidal ratio of 90% or more (almost completely withered)) | 5 (Herbicidal ratio of 90% or more (almost completely withered)) | 5 (Herbicidal ratio of 90% or more (almost completely withered)) | 5 (Herbicidal ratio of 90% or more (almost completely withered)) | 5 (Herbicidal ratio of 90% or more (almost completely withered)) | 5 (Herbicidal ratio of 90% or more (almost completely withered)) | 
CON=C(C)CC1CC(OC(=O)C(CSC)=NOC)=C(c2c(C)cc(C)cc2C)C1=O (stereo not drawn) [1-098] | 5 (Herbicidal ratio of 90% or more (almost completely withered)) | 5 (Herbicidal ratio of 90% or more (almost completely withered)) | 0 (Herbicidal ratio of 5% or lower (almost no effect)) | 5 (Herbicidal ratio of 90% or more (almost completely withered)) | 5 (Herbicidal ratio of 90% or more (almost completely withered)) | 4 (Herbicidal ratio of 70% or higher and lower than 90%) | 3 (Herbicidal ratio of 40% or higher and lower than 70%) | 4 (Herbicidal ratio of 70% or higher and lower than 90%) | 5 (Herbicidal ratio of 90% or more (almost completely withered)) | 5 (Herbicidal ratio of 90% or more (almost completely withered)) | 5 (Herbicidal ratio of 90% or more (almost completely withered)) | 5 (Herbicidal ratio of 90% or more (almost completely withered)) | 5 (Herbicidal ratio of 90% or more (almost completely withered)) | 
CON=C(C)CC1CC(OC(=O)c2nsc(Cl)c2Cl)=C(c2c(C)cc(C)cc2C)C1=O (stereo not drawn) [1-099] | 4 (Herbicidal ratio of 70% or higher and lower than 90%) | 5 (Herbicidal ratio of 90% or more (almost completely withered)) | 0 (Herbicidal ratio of 5% or lower (almost no effect)) | 5 (Herbicidal ratio of 90% or more (almost completely withered)) | 5 (Herbicidal ratio of 90% or more (almost completely withered)) | 3 (Herbicidal ratio of 40% or higher and lower than 70%) | 3 (Herbicidal ratio of 40% or higher and lower than 70%) | 4 (Herbicidal ratio of 70% or higher and lower than 90%) | 5 (Herbicidal ratio of 90% or more (almost completely withered)) | 5 (Herbicidal ratio of 90% or more (almost completely withered)) | 4 (Herbicidal ratio of 70% or higher and lower than 90%) | 5 (Herbicidal ratio of 90% or more (almost completely withered)) | 5 (Herbicidal ratio of 90% or more (almost completely withered)) | 
CON=C(C)CC1CC(OC(=O)c2cc(C)on2)=C(c2c(C)cc(C)cc2C)C1=O (stereo not drawn) [1-100] | 5 (Herbicidal ratio of 90% or more (almost completely withered)) | 5 (Herbicidal ratio of 90% or more (almost completely withered)) | 0 (Herbicidal ratio of 5% or lower (almost no effect)) | 5 (Herbicidal ratio of 90% or more (almost completely withered)) | 5 (Herbicidal ratio of 90% or more (almost completely withered)) | 2 (Herbicidal ratio of 20% or higher and lower than 40%) | 5 (Herbicidal ratio of 90% or more (almost completely withered)) | 5 (Herbicidal ratio of 90% or more (almost completely withered)) | 5 (Herbicidal ratio of 90% or more (almost completely withered)) | 5 (Herbicidal ratio of 90% or more (almost completely withered)) | 5 (Herbicidal ratio of 90% or more (almost completely withered)) | 5 (Herbicidal ratio of 90% or more (almost completely withered)) | 5 (Herbicidal ratio of 90% or more (almost completely withered)) | 
CON=C(C)CC1CC(OC(=O)c2nc(C)sc2C)=C(c2c(C)cc(C)cc2C)C1=O (stereo not drawn) [1-101] | 5 (Herbicidal ratio of 90% or more (almost completely withered)) | 5 (Herbicidal ratio of 90% or more (almost completely withered)) | 5 (Herbicidal ratio of 90% or more (almost completely withered)) | 5 (Herbicidal ratio of 90% or more (almost completely withered)) | 5 (Herbicidal ratio of 90% or more (almost completely withered)) | 3 (Herbicidal ratio of 40% or higher and lower than 70%) | 3 (Herbicidal ratio of 40% or higher and lower than 70%) | 5 (Herbicidal ratio of 90% or more (almost completely withered)) | 5 (Herbicidal ratio of 90% or more (almost completely withered)) | 5 (Herbicidal ratio of 90% or more (almost completely withered)) | 5 (Herbicidal ratio of 90% or more (almost completely withered)) | 5 (Herbicidal ratio of 90% or more (almost completely withered)) | 5 (Herbicidal ratio of 90% or more (almost completely withered)) | 

— patent publication US11000033B2, “Ketone or oxime compound, and herbicide” (NISSAN CHEMICAL CORPORATION, priority 2014, dated 2021)
